As usually defined, the pIC50 is −log10 of the IC50, conventionally taken in molar units. As usually defined, the AUC(0-t) is exposure summed from dosing to a finite time, without extrapolation to infinity. Low readings indicate low exposure, high ones high exposure. Broadly, the Cmax is the maximum level reached in the sampled fluid or tissue. For orientation: Tmax means the time at which the peak concentration occurs.

The structures appear in SMILES notation. pIC50: −log10 of the molar value. Where a name gives a salt, the structure may show the parent alone.

For one data set, the target named is T1, hP2X3 receptor (Homo sapiens, UniProt P56373).
T1 construct: expressed in transfected cells
T1 sequence (P56373 1-397): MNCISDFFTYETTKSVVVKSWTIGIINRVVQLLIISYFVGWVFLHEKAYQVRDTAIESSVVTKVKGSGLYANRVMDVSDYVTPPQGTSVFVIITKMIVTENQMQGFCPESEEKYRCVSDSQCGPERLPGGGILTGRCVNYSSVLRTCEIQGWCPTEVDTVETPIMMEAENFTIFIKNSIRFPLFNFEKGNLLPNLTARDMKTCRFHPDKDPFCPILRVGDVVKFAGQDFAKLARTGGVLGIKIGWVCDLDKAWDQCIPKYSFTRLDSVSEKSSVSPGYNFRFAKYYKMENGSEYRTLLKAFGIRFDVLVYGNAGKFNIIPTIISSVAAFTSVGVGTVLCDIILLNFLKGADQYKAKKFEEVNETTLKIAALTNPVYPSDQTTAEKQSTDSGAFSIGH
The experiment in a line: Antagonistic activity against hP2X3 receptor by FLIPR calcium flow assay. Type of data set: cell-based. To be noted: for pIC50: human cells stably transfected with hP2X3, agonist α,β-meATP 400 nM; for antagonistic activity against hP2X3 receptor compared with Reference compound 1 (in words): vs Reference compound 1. The method, then: The antagonistic activity of hP2X3 antagonists against hP2X3 receptor was evaluated by means of FLIPR Calcium 4 Assay Kit (Molecular Devices, R8141) and FLIPR TETRA instrument (Molecular Devices, 0296) by detecting calcium flow signals. 24h before the experiment, human cells, which had been stably transfected with hP2X3 receptors, were plated on a 384-well plate at 2×10^5 cells/mL, with 50 μL of cell suspension per well, and the plate was cultured in an incubator (37° C., 5% CO2) for 16 h to 24 h. The test compound solution (20 to 50 mM DMSO stock solution) with a concentration of 180 times the required concentration was prepared using DMSO. The stock solution was added to the 384-well plate at 500 nL per well, supplemented with 30 μL of FLIPR Assay buffer (1×HBSS+2 mM CaCl2 20 mM HEPES containing 1.26 mM Ca^2+). The 384-well plate was shaken for 20 to 40 min to mix evenly. An agonist (α, β-meATP) with a concentration of 3 times the required concentration (required final concentration was 400 nM) was prepared with FLIPR Assay buffer, and was added to another 384-well plate at 45 μL per well. The culture plate, on which the cells were plated one day ago, was taken, the cell supernatant was sucked and discarded, each well was added with 30 μL of Dye (FLIPR® Calcium 4 Assay Kit, diluted with FLIPR buffer), and then the plate was incubated for 1h. 15 μL of compound was added to each well of cells (using FLIPR sample injector). After 15 minutes, 22.5 μL of the agonist was added to each well, and the fluorescence signal (exciting light wavelength ranging from 470 nm to 495 nm, and emission wavelength ranging from 515 nm to 575 nm) was detect. […] An inhibition effect curve of the compound was fitted on the software GraphpadPrism6, and the IC50 value was calculated.

Data set [1] relates to histamine/citric acid-stimulated cough in guinea pig. The data set is described as follows: Efficacy test for histamine/citric acid-stimulated cough in guinea pig. The data set is classed as in vivo. Conditions: guinea pigs, nasal drops, 0.17 mg/kg to 1.5 mg/kg, histamine/citric acid stimulation. The method, then:
Guinea pigs were adaptively fed for 3 days to 7 days before being grouped. When the body weight of the guinea pigs reached 300 g to 400 g, they were numbered and randomly grouped.
Compounds or an excipient were administered to guinea pigs by nasal drops 0.25 hour to 24 hours before the start of the cough assessment. The administration dose of the test sample ranged from 0.17 mg/kg to 1.5 mg/kg. For the cough assessment, the guinea pigs were placed in a whole-body volume scan box for adaptation, and then, they were provided with histamine nebulization and then citric acid nebulization. […]
The experimental data was statistically analyzed by one-way ANOVA to analyze and compare data of the various groups. The statistical analysis result p<0.05 was regarded as a significant difference. The t-test was employed for difference comparison between any two.

A further data set has as its system rat taste. The experiment in a line: Taste test in rat (water vs 0.3 mM aqueous quinine solution intake). The data set is classed as in vivo, SD rats. Conditions: SD rats, 30 mg/kg i.p, 0.3 mM quinine, 15 min supply half an hour after administration. The procedure: SD rats were administered with the corresponding compound after 3 days of overnight water prohibition training. Each rat was supplied with 1 bottle of water and 1 bottle of 0.3 mM aqueous quinine solution half an hour after the administration. After 15 min of water supply, the bottles were removed. The intake amount of water and the intake amount of the 0.3 mM aqueous quinine solution were measured, respectively. The taste influence of the compound on SD rats was evaluated based on the difference between the intake amount of water and the intake amount of the aqueous quinine solution.

The nature of data set [2]: Pharmacokinetic assay in mouse. The data set is classed as in vivo, ICR mice. The procedure: For a mouse pharmacokinetic assay, male ICR mice (20 g to 25 g) were selected and fasted overnight. Three mice were intragastrically administered with 10 mg/kg of the corresponding compound. The blood of the mice was collected before the administration and at 15 min, 30 min, 1 h, 2 h, 4 h, 8 h, and 24 h after the administration. The blood samples were centrifuged at 4° C. for 6 minutes at 6,800 g, plasma was collected and stored at −80° C.
The supernatant was mixed with 3 times the amount of water, and an appropriate amount of the mixed solution was taken for LC-MS/MS analysis. The primary pharmacokinetic parameters were analyzed by WinNonlin 7.0 software non-atrioventricular model.

Where [3] appears, read: mouse, plasma, po, male ICR mice, intragastric administration, 10 mg/kg.

Consider `Cc1cnc(-c2cc(OC(C)C(C)O)cc(C(=O)N[C@H](C)c3cnc(C(F)(F)F)nc3)c2F)s1` (single isomer, unassigned) [Compound I-4], for which, at hP2X3 receptor, the pIC50 is 7.20 and the “antagonistic activity against hP2X3 receptor compared with Reference compound 1 (in words)” value is given as “better antagonistic activity”.

As to `Cc1cnc(-c2cc(OC(C)C(C)O)cc(C(=O)N[C@H](C)c3cnc(C(F)(F)F)nc3)c2F)s1` (single isomer, unassigned) [Compound I-5], on hP2X3 receptor, the pIC50 is 7.30 and the “antagonistic activity against hP2X3 receptor compared with Reference compound 1 (in words)” value is “better antagonistic activity”. As for `Cc1cnc(-c2cc(O[C@@H]3CCOC3)c(F)c(C(=O)N[C@H](C)c3cnc(C(F)(F)F)nc3)c2)s1` [Compound I-2, 2-fluoro-5-(5-methylthiazol-2-yl)-3-(((R)-tetrahydrofuran-3-yl)oxy)-N—((R)-1-(2-(trifluoromethyl)pyrimidin-5-yl)ethyl)benzamide], the negative logarithm of the IC50 (pIC50) at hP2X3 receptor was 6.53. As for `Cc1cnc(-c2cc(C(=O)N[C@H](C)c3cnc(C(F)(F)F)nc3)cc(O[C@@H]3CCOC3)c2F)s1` [Compound I-3, 4-fluoro-3-(5-methylthiazol-2-yl)-5-(((R)-tetrahydrofuran-3-yl)oxy)-N—((R)-1-(2-(trifluoromethyl)pyrimidin-5-yl)ethyl)benzamide], the negative-log IC50 (pIC50) on hP2X3 receptor is 6.77. Still for that read-out and setting: under `CC(O)C(C)Oc1cc(C(=O)N[C@H](C)c2cnc(C(F)(F)F)nc2)c(F)c(-c2ncc(Cl)s2)c1` (stereo partly drawn) [Compound I-7, 3-(5-chlorothiazol-2-yl)-2-fluoro-5-((cis-3-hydroxybutan-2-yl)oxy)-N—((R)-1-(2-(trifluoromethyl)pyrimidin-5-yl)ethyl)benzamide] stands 6.57.

`Cc1cnc(-c2cc(OC[C@@H]3COCCN3C)cc(C(=O)N[C@H](C)c3cnc(C(F)(F)F)nc3)c2F)s1` [Compound I-9, 2-fluoro-5-(((S)-4-methylmorpholin-3-yl)methoxy)-3-(5-methylthiazol-2-yl)-N—((R)-1-(2-(trifluoromethyl)pyrimidin-5-yl)ethyl)benzamide]: at hP2X3 receptor, the pIC50 is 6.52.

As for `Cc1cnc(-c2cc(OC3COC3)cc(C(=O)N[C@H](C)c3cnc(C(F)(F)F)nc3)c2F)s1` [Compound I-14, (R)-2-fluoro-3-(5-methylthiazol-2-yl)-5-(oxetane-3-yloxy)-N-(1-(2-(trifluoromethyl)pyrimidin-5-yl)ethyl)benzamide], on hP2X3 receptor, the pIC50 is 7.00 and the “antagonistic activity against hP2X3 receptor compared with Reference compound 1 (in words)” value is “better antagonistic activity”. For `Cc1cnc(-c2cc(OCC3CC3)cc(C(=O)N[C@H](C)c3cnc(C(F)(F)F)nc3)c2F)s1` [Compound I-15, (R)-5-(cyclopropylmethoxy)-2-fluoro-3-(5-methylthiazol-2-yl)-N-(1-(2-(trifluoromethyl)pyrimidin-5-yl)ethyl)benzamide], at hP2X3 receptor, the pIC50 is 5.87. As for `Cc1cnc(-c2cc(OC3CCN(C)CC3)cc(C(=O)N[C@H](C)c3cnc(C(F)(F)F)nc3)c2F)s1` [Compound I-16, (R)-2-fluoro-5-((1-methylpiperidin-4-yl)oxy)-3-(5-methylthiazol-2-yl)-N-(1-(2-(trifluoromethyl)pyrimidin-5-yl)ethyl)benzamide], the negative logarithm of the IC50 (pIC50) at hP2X3 receptor is 6.36. Still for that read-out and setting: the value for `Cc1cnc(-c2cc(OC3CCNCC3)cc(C(=O)N[C@H](C)c3cnc(C(F)(F)F)nc3)c2F)s1` [Compound I-17, (R)-2-fluoro-5-((1-piperidin-4-yl)oxy)-3-(5-methylthiazol-2-yl)-N-(1-(2-(trifluoromethyl)pyrimidin-5-yl)ethyl)benzamide] was 6.41. As to `Cc1cnc(-c2cc(OC[C@H]3CNCCO3)cc(C(=O)N[C@H](C)c3cnc(C(F)(F)F)nc3)c2F)s1` [Compound I-18, 2-fluoro-3-(5-methylthiazol-2-yl)-5-(((R)-morpholin-2-yl)methoxy)-N—((R)-1-(2-(trifluoromethyl)pyrimidin-5-yl)ethyl)benzamide hydrochloride], the negative logarithm of the IC50 (pIC50) on hP2X3 receptor was 6.35. On the same count and under the same terms, the value for `Cc1cnc(-c2cc(OC[C@H]3CN(C)CCO3)cc(C(=O)N[C@H](C)c3cnc(C(F)(F)F)nc3)c2F)s1` [Compound I-19, 2-fluoro-5-(((R)-4-methylmorpholin-2-yl)methoxy)-3-(5-methylthiazol-2-yl)-N—((R)-1-(2-(trifluoromethyl)pyrimidin-5-yl)ethyl)benzamide] was 6.51. Same read-out and setting: under `[2H]C([2H])([2H])N1CCO[C@@H](COc2cc(C(=O)N[C@H](C)c3cnc(C(F)(F)F)nc3)c(F)c(-c3ncc(C)s3)c2)C1` [Compound I-20, 2-fluoro-5-(((R)-4-(methyl-d3)morpholin-2-yl)methoxy)-3-(5-methylthiazol-2-yl)-N—((R)-1-(2-(trifluoromethyl)pyrimidin-5-yl)ethyl)benzamide] stands 6.43.

As to `Cc1cnc(-c2cc(O[C@@H](C)[C@H](C)O)cc(C(=O)N[C@H](C)c3cnc(C(F)(F)F)nc3)c2F)s1` [Compound I-28, 2-fluoro-5-(((2S, 3S)-3-hydroxybutan-2-yl)oxy)-3-(5-methylthiazol-2-yl)-N—((R)-1-(2-(trifluoromethyl)pyrimidin-5-yl)ethyl)benzamide], in data set [1], the “Average cough times within 15 min” value is recorded as 9.1 and the “Cough inhibition rate vs. solvent” value came out at 65.8%. For the same compound, the “Water/aqueous quinine solution (ratio of water intake to aqueous quinine solution intake)” value in the data set on rat taste is 15.4. Further, on hP2X3 receptor, the negative-log IC50 (pIC50) was 7.20 and the “antagonistic activity against hP2X3 receptor compared with Reference compound 1 (in words)” value is “better antagonistic activity”. Besides, the “pharmacokinetic properties in mouse compared with Reference compound 1 and Reference compound 2 (in words)” value in data set [2] (mouse assay, vs Reference compounds 1 and 2) is on record as “significantly improved pharmacokinetic properties”. In addition, in data set [2] (setting [3]), the AUC(0-t) amounted to 8760 ng·h/mL, the Cmax turned out to be 2400 ng/mL and the Tmax was found to be 0.5 h. Also, the half-life in data set [2] (mouse, plasma, po, male ICR mice, intragastric administration, 10 mg/kg, read-out: T½ (converted)) was 2.65 h.
